Test results as given in ChEMBL document CHEMBL1201862, “PubChem BioAssay data set” (2004).
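48-hour exposure; five concentrations; linearly interpolated endpoints. GI50 is the concentration that inhibits growth by half.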 Activity calls are given as the source filed them. No stated cut-off is given here; in the data, active = GI50 up to about 1.1 µM and inactive = higher.

Columns and labels:
Assay in all cases: NCI-60 cell line screen, 48 h
RXF 631 = tested on: RXF 631
SNB-78 = tested on: SNB-78
KM-20L2 = tested on: KM-20L2
XF498 = tested on: XF498
HOP-18 = tested on: HOP-18
DLD-1 = tested on: DLD-1
LXFL 529 = tested on: LXFL 529
DMS-114 = tested on: DMS-114
BT-549 = tested on: BT-549

Measured: GI50

CN1CCc2c1nc(-c1cccnc1)c1c2N(C)CC1
inactive: RXF 631 > 100 µM | SNB-78 > 100 µM | KM-20L2 97.1 µM | XF498 > 100 µM | HOP-18 60.4 µM | DLD-1 > 100 µM | LXFL 529 > 100 µM | DMS-114 > 100 µM

Cc1ccccc1C1=C(C(=O)Nc2ccc(Cl)c(Cl)c2)NC(=S)NC1N (stereo not given)
inactive: RXF 631 > 100 µM | SNB-78 > 100 µM | KM-20L2 > 100 µM | XF498 > 100 µM | HOP-18 > 100 µM | DLD-1 > 100 µM | LXFL 529 > 100 µM | DMS-114 > 100 µM

CC1=C(C(=O)NNS(=O)(=O)c2ccc(C)cc2)CC(C(=O)NNS(=O)(=O)c2ccc(C)cc2)=C(C)N1
inactive: RXF 631 > 100 µM | SNB-78 > 100 µM | KM-20L2 > 100 µM | XF498 > 100 µM | HOP-18 27.1 µM | DLD-1 > 100 µM | LXFL 529 52.1 µM | DMS-114 > 100 µM

C/C=C1\CN2CCc3c([nH]c4ccccc34)C2CC1CCO (stereo not given)
inactive: RXF 631 > 100 µM | SNB-78 > 100 µM | KM-20L2 > 100 µM | XF498 > 100 µM | HOP-18 > 100 µM | DLD-1 > 100 µM | LXFL 529 > 100 µM | DMS-114 > 100 µM

Cc1ccc(NC(=O)C(=O)C2C(=O)N(c3ccccc3)N=C2N)cc1C (stereo not given)
inactive: RXF 631 > 100 µM | SNB-78 > 100 µM | KM-20L2 > 100 µM | XF498 > 100 µM | HOP-18 > 100 µM | DLD-1 > 100 µM | LXFL 529 > 100 µM | DMS-114 > 100 µM

O=c1c(Cc2ccccc2)c(O)cc2n1CCC2
inactive: RXF 631 > 100 µM | SNB-78 > 100 µM | KM-20L2 > 100 µM | XF498 > 100 µM | HOP-18 > 100 µM | DLD-1 > 100 µM | LXFL 529 > 100 µM | DMS-114 > 100 µM

Cc1ccc2nc3c(C)c(Cl)c(=O)cc-3sc2c1
inactive: RXF 631 24.3 µM | SNB-78 32.2 µM | KM-20L2 78 µM | BT-549 20.9 µM | XF498 10 µM | HOP-18 19.7 µM | DLD-1 19.2 µM | LXFL 529 4.94 µM | DMS-114 2.97 µM

Cc1ccccc1NC(=O)CC(=O)NNCC(=O)Nc1nnc(-c2ccccc2)s1
inactive: RXF 631 > 100 µM | SNB-78 > 100 µM | KM-20L2 > 100 µM | XF498 31.9 µM | HOP-18 29 µM | DLD-1 98.9 µM | LXFL 529 39.2 µM | DMS-114 43.6 µM
